Measured values reported in PubChem BioAssay (NCI).
Where “and” joins values, the source holds several entries; their conditions need not be identical. Equal values may be shown once.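 Following 48 hours of exposure in 96-well plates, responses at five concentrations were used to interpolate endpoints linearly. GI50: concentration for 50% inhibition of growth. The concentration for full growth arrest is given as TGI.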

System: MDA-MB-468 breast
Experiment: DTP human tumour cell line panel, 48 h

Structure (SMILES) | GI50 | TGI
CCOc1ccc2cc(-c3nn(CC4CCNCC4)c4ncnc(N)c34)ccc2c1 | 14.3 µM | 30.2 µM
COc1ccc(-c2cc(/C=C/C(=O)c3ccc(N)cc3)[nH]n2)cc1 | 0.43 µM | 2.09 µM
CCCCCCCCCCCCCCCC[n+]1ccccc1 | 0.104 µM and 0.194 µM | 0.428 µM and 0.793 µM
COc1cc(/C=C2\SC(N3CCCCC3)=NC2=O)ccc1OCCCCCCOc1ccc(/C=C2\SC(N3CCCCC3)=NC2=O)cc1OC | 10.3 µM | 37.2 µM
CN1CC[C@H](c2c(O)cc(O)c3c(=O)cc(-c4ccccc4Cl)oc23)[C@H](O)C1 | 0.0718 µM | 0.269 µM
O=C1Nc2ccc3c(c2/C1=C\c1cc2c(cc1Br)OCO2)OCO3 | 0.295 µM | 0.978 µM
C[C@@H]1CCc2ncc(F)cc2[C@H]2CCCN2c2ccn3ncc(c3n2)C(=O)N1 | 76.4 µM | > 100 µM
COc1cc2cc(Oc3cccc(NC(=O)Nc4cc(C(F)(F)F)cc(C(F)(F)F)c4)c3)c(C)nc2cc1OC | 1.08 µM | 3.96 µM
O=CN1N=C(c2cccc(Nc3ccnc4cc(Cl)ccc34)c2)CC1c1ccc(Cl)cc1 (configuration not stated) | 0.422 µM | 3.17 µM
CC(O)[C@H](NC(=O)N[C@@H](CC(N)=O)c1nc(N2CCNCC2)no1)C(=O)O (some centres not stated) | > 100 µM | > 100 µM
CS(=O)(=O)Nc1cc(-c2ccc3ncnc(Nc4cccc(Cl)c4)c3c2)cnc1Cl | 0.145 µM | 0.59 µM
C=CC(=O)Nc1cc2c(Nc3ccc(F)c(Cl)c3)ncnc2cc1C#CC(C)(C)N1CCN(C)CC1 | 0.00795 µM | 0.401 µM
CC(C)OP(=O)(O)c1ncc(-c2ccc(C(F)(F)F)cc2)c(NC2CCCCCC2)n1 | 11.2 µM | > 100 µM
Cc1ccc(C2CC(c3ccc(Nc4ccnc5cc(Cl)ccc45)cc3)=NN2C=O)cc1 (configuration not stated) | 1.51 µM | > 100 µM
C#C[C@]1(O)CC[C@H]2[C@@H]3CC=C4c5nc(N)sc5CC[C@]4(C)[C@H]3CC[C@@]21C | 2.52 µM | 7.03 µM
COc1ccc(C2=Nn3c(nnc3-n3nc(C)cc3C)SC2)cc1 | 0.14 µM | > 100 µM
COc1ccc2c(c1)C(=O)c1c-2c(OCCN(C)C)nc2cc(OC)c(OC)cc12 | 3.95 µM | 19 µM
CN(C)c1ccc(-c2ccc(-c3ccc(C(=N)N)cn3)o2)cc1 | 1.39 µM | 3.05 µM
CC[C@H]1OC(=O)[C@H](C)[C@@H](O[C@H]2C[C@@](C)(OC)[C@@H](O)[C@H](C)O2)[C@H](C)[C@@H](O[C@@H]2O[C@H](C)C[C@H](N(C)C)[C@H]2O)[C@](C)(OC)C/C(C)=C2/O[C@@]1(C)C=C2C | 1.82 µM | 3.5 µM
COc1cc2ncnc(Oc3cccc(NC(=O)Nc4cc(C(C)(C)C(F)(F)F)on4)c3)c2cc1OC | 1.04 µM and 1.26 µM | 6.01 µM and 6.4 µM
COc1cc(NC2CCCCC2O)c2nc(-c3ccc(Cl)cc3)ccc2c1 (configuration not stated) | 7.48 µM | 98.4 µM

Structure (SMILES) | GI50 | TGI
CC(=O)Oc1cc2cnc3c4cc(OC(C)=O)c(OC(C)=O)cc4ccc3c2cc1OC(C)=O | 1.2 µM | 4.44 µM
O=c1[nH]cnc2n[nH]nc12 | 1.31 µM | 12.7 µM
CCOC(=O)c1c(NC(=O)c2ccc(Cl)cc2)sc2c(CN(C)C)c(O)ccc12 | 3.48 µM | 18.6 µM
CC1(C)N=C(N)N=C(N)N1c1cccc(CCc2ccccc2)c1 | 0.0745 µM | 2.51 µM
O=[N+]([O-])/C=C/c1ccc(Cl)cc1[N+](=O)[O-] | 1.92 µM | 3.69 µM
COc1cc(-c2nn(-c3cccc(NC(=O)CCNc4ccc(N5CCOCC5)cc4)c3)cc2-c2ccncc2)ccc1Cl | 2.01 µM | 22.9 µM
CCOC(=O)[C@@H]1CSC(CC)=C(C(=O)O)N1 | > 100 µM | > 100 µM
CCOC(=O)/C(=C\c1ccc2ccccc2c1)P(=O)(OCC)OCC | 1.9 µM | 3.83 µM
CCO/C=N/C1=C(C#N)C(c2ccc(OC)cc2)c2sc3c(CC)cccc3c2O1 (configuration not stated) | 2.5 µM | 10.3 µM
COc1ccc(C(O)c2cc3c(N)c(C(=O)Nc4cccc(Br)c4C)sc3nc2C)cc1 (configuration not stated) | 0.125 µM | 19.1 µM
COc1ccc(/C=C/C(=O)c2cc3c(N)c(C(=O)Nc4ccc(OC)cc4)sc3nc2C)cc1 | 0.135 µM | > 50 µM
COc1ccc2c(c1OC)O/C(=C\c1ncc([N+](=O)[O-])n1C)C2=O | 2.51 µM | 8.23 µM
NC(=O)/C(=C/n1cnc(-c2cc(C(F)(F)F)cc(C(F)(F)F)c2)n1)c1cncnc1 | 0.373 µM | 3.01 µM
COc1cc(-c2nn(-c3cccc(NC(=O)CCN4CCN(c5ccccc5)CC4)c3)cc2-c2ccncc2)ccc1Cl | 3.03 µM | 51.4 µM
CCc1ccc2c(c1)N(CCO)C1=C(C(=O)OC1)C2c1cc(OC)c(OC)c(OC)c1 (configuration not stated) | 0.0897 µM | 0.347 µM
CCn1c(-c2nonc2N)nc2cnc(Oc3cccc(NC(=O)c4ccc(N(C)C)cc4)c3)cc21 | 10.7 µM | > 25 µM
COc1cc2c3cc1Oc1c(OC)c(OC)cc4c1C(Cc1ccc(O)c(c1)Oc1ccc(cc1)CC3N(C)CC2)N(C)CC4 (configuration not stated) | 8.21 µM | 23.1 µM
Cc1cc(NN=C(c2ccc(O)cc2)c2ccc(O)cc2)c([N+](=O)[O-])cc1[N+](=O)[O-] | 4.91 µM | 36.7 µM
COc1cccc(-c2nc3sccn3c2-c2ccnc(NCCCNS(=O)(=O)c3ccccc3)c2)c1 | 2.47 µM | 7.83 µM
CCOC(=O)c1c(CN2CCN(C)CC2)nc2ccc(Cl)cc2c1-c1ccccc1 | 1.8 µM | 4.43 µM
